{"source": "patent US10960020B2", "about": "“Modulation of PCSK9 and LDLR through DRP1 inhibition” (THE BRIGHAM AND WOMEN'S HOSPITAL, INC., priority 2016, dated 2021)", "system": "PCSK9 secretion in HepG2 cells", "assay": "Secreted PCSK9 ELISA, HepG2 media", "format": "cell-based, human", "settings": "HepG2, 24 hours; chloroquine 50 μmol/L, Mdivi-1 50 μmol/L, MG132 0.3 μmol/L", "protocol": "Pitavastatin and T0901317 were synthesized and provided by Kowa Company, Ltd. (Tokyo, Japan), and treated at a dose of 1 μM in all experiments. […] Mdivi-1 in DMSO vehicle was added at a concentration of 50 μM in all experiments. Mdivi-1 in DMSO vehicle was added to cell culture media in a 50 mL tube, vortexed hard for several minutes and then incubated at 37° C. prior to adding to cells to ensure the compound was fully solubilized.\nHepG2 cells were obtained from ATCC (Manassas, Va.), and cultured in EMEM with L-glutamine (ATCC) medium, 1% pen/strep, with and without 10% FBS (Thermo Fisher Scientific, Waltham, Mass.) in 12-well plates (Corning, Durham, N.C.). HepG2 cells were plated at a density of 60-70% prior to treatment to avoid clumping. […] Cell viability was assessed by Trypan Blue exclusion using live/dead cell counting on a Countess™ II LT automated cell counter (Thermo Fisher Scientific).", "data": [{"molecule": "CCN(CC)CCCC(C)Nc1ccnc2cc(Cl)ccc12", "note": "(stereo not shown) [chloroquine]", "values": [{"measurement": "PCSK9 secretion by ELISA (in words)", "value": "increased"}]}]}
